Among the data in BindingDB's records for doi:10.1016/j.bmcl.2006.10.060 (Merck Research Laboratories, 2007) are IC50 values, retold here.

Structures are written as SMILES. pIC50: −log10 of the molar value.

The nature of the assay: Antagonist activity against human CCR2 receptor assessed as inhibition of MCP1-induced migration of human peripheral blood monocytes.
Turning to `CCC(CCCN(CC)CC)NC(=O)CCOc1cc(-c2cc(Cl)cc(Cl)c2)nn1-c1ccc2ccccc2c1` (stereo unspecified) [3-(3-(3,5-dichlorophenyl)-1-(naphthalen-2-yl)-1H-pyrazol-5-yloxy)-N-(6-(diethylamino)hexan-3-yl)propanamide], the negative logarithm of the IC50 (pIC50) (as a rule, the negative decadic logarithm of the IC50, by convention in mol/L) is 7.08. Turning to `CCN(CC)CCCC(C)NC(=O)CCNc1cc(-c2cc(Cl)cc(Cl)c2)nn1-c1ccc2ccccc2c1` (stereo unspecified) [3-(3-(3,5-dichlorophenyl)-1-(naphthalen-2-yl)-1H-pyrazol-5-ylamino)-N-(5-(diethylamino)pentan-2-yl)propanamide], the negative-log IC50 (pIC50) is 7.27. The figure for `CCCC(CCCN(CC)CC)NC(=O)CCOc1cc(-c2cc(Cl)cc(Cl)c2)nn1-c1ccc2ccccc2c1` (stereo unspecified) [3-(3-(3,5-dichlorophenyl)-1-(naphthalen-2-yl)-1H-pyrazol-5-yloxy)-N-(1-(diethylamino)heptan-4-yl)propanamide] is 6.81; for `COC(=O)[C@H](CCCN=C(N)N)NC(=O)CCCc1cc(-c2cc(Cl)cc(Cl)c2)nn1-c1ccc2ccccc2c1` [(S)-2-{4-[5-(3,5-dichloro-phenyl)-2-naphthalen-2-yl-2H-pyrazol-3-yl]-butyrylamino}-5-guanidino-pentanoic acid methyl ester] it is 6.73; for `CCC(C)CC(CCCN(CC)CC)NC(=O)CCOc1cc(-c2cc(Cl)cc(Cl)c2)nn1-c1ccc2ccccc2c1` (stereo unspecified) [3-(3-(3,5-dichlorophenyl)-1-(naphthalen-2-yl)-1H-pyrazol-5-yloxy)-N-(1-(diethylamino)-6-methyloctan-4-yl)propanamide] it is 6.65. The figure for `CCN(CC)CCCC(CC(C)C)NC(=O)CCOc1cc(-c2cc(Cl)cc(Cl)c2)nn1-c1ccc2ccccc2c1` (stereo unspecified) [3-(3-(3,5-dichlorophenyl)-1-(naphthalen-2-yl)-1H-pyrazol-5-yloxy)-N-(1-(diethylamino)-6-methylheptan-4-yl)propanamide] is 6.75. Consider `O=C(CCCc1cc(-c2cc(Cl)cc(Cl)c2)nn1-c1ccc2ccccc2c1)NCCCc1ccncc1` [4-(3-(3,5-dichlorophenyl)-1-(naphthalen-2-yl)-1H-pyrazol-5-yl)-N-(3-(pyridin-4-yl)propyl)butanamide], for which the negative logarithm of the IC50 (pIC50) is 5.85.

For `COC(=O)[C@H](CCCN=C(N)N)NC(=O)CCNc1cc(-c2cc(Cl)cc(Cl)c2)nn1-c1ccc2ccccc2c1` [(S)-2-{3-[5-(3,5-dichloro-phenyl)-2-naphthalen-2-yl-2H-pyrazol-3-ylamino]-propionylamino}-5-guanidino-pentanoic acid methyl ester], the pIC50 is 7.17. The figure for `CCN(CC)CCCC(NC(=O)CCOc1cc(-c2cc(Cl)cc(Cl)c2)nn1-c1ccc2ccccc2c1)C(C)C` (stereo unspecified) [3-(3-(3,5-dichlorophenyl)-1-(naphthalen-2-yl)-1H-pyrazol-5-yloxy)-N-(6-(diethylamino)-2-methylhexan-3-yl)propanamide] is 7.49; for `COC(=O)[C@H](CCCN=C(N)N)NC(=O)CCOc1cc(-c2cc(Cl)cc(Cl)c2)nn1-c1ccc2ccccc2c1` [(S)-2-{3-[5-(3,5-dichloro-phenyl)-2-naphthalen-2-yl-2H-pyrazol-3-yloxy]-propionylamino}-5-guanidino-pentanoic acid methyl ester] it is 6.93; for `CCN(CC)CCCC(C)NC(=O)CCOc1cc(-c2cc(Cl)cc(Cl)c2)nn1-c1ccc2ccccc2c1` (stereo unspecified) [3-(3-(3,5-dichlorophenyl)-1-(naphthalen-2-yl)-1H-pyrazol-5-yloxy)-N-(5-(diethylamino)pentan-2-yl)propanamide] it is 6.55.
